The source of these data is paper PMC3934850 (Biochimica et biophysica acta, 2014).

For this experiment, the target named is myoglobin (carbonmonoxy myoglobin, MbCO) (Equus caballus, UniProt P68082). Description: 1H NMR titration. Format: binding.
Chain of myoglobin (carbonmonoxy myoglobin, MbCO) (P68082 2-154): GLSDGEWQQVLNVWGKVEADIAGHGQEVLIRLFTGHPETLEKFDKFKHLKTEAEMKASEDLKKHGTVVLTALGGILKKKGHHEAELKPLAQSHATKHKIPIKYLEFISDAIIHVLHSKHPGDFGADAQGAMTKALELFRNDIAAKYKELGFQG

Regarding `CCCCCCCCCCCCCCCC(=O)O` [PA, palmitate], the Kd (as a rule, a measure of binding affinity in units of concentration) lay within 39 to 48 µM.
